Key:
[1] = biological target: Serine/threonine-protein kinase pim-3 (Homo sapiens) (UniProt Q86V86); assay: Inhibition of PIM3 at 10 uM assessed as residual activity by [33P]ATP radioactive filter binding assay relative to control
[2] = biological target: Serine/threonine-protein kinase PAK 5 (Homo sapiens) (UniProt Q9P286); assay: Inhibition of PAK5 at 10 uM assessed as residual activity by [33P]ATP radioactive filter binding assay relative to control
[3] = biological target: Insulin-like growth factor 1 receptor (Homo sapiens) (UniProt P08069); assay: Inhibition of IGF-1R at 10 uM assessed as residual activity by [33P]ATP radioactive filter binding assay relative to control
[4] = biological target: MAP kinase-activated protein kinase 3 (Homo sapiens) (UniProt Q16644); assay: Inhibition of MAPKAPK-3 at 10 uM assessed as residual activity by [33P]ATP radioactive filter binding assay relative to control
Chain of MAP kinase-activated protein kinase 3 (Homo sapiens) (Q16644 whole entry, looked up): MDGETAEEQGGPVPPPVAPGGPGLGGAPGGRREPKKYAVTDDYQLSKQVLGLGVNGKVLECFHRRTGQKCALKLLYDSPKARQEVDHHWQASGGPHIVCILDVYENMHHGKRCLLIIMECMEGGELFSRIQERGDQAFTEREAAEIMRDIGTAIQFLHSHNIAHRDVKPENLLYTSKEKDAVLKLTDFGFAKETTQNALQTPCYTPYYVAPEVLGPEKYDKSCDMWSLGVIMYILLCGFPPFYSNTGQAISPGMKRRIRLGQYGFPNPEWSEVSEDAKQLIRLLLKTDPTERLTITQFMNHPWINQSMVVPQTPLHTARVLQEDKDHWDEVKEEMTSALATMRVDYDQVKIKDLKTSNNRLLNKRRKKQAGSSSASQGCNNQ

[5] = biological target: Tyrosine-protein kinase CSK (Homo sapiens) (UniProt P41240); assay: Inhibition of CSK at 10 uM assessed as residual activity by [33P]ATP radioactive filter binding assay relative to control
[6] = biological target: Serine/threonine-protein kinase MARK2 (Homo sapiens) (UniProt Q7KZI7); assay: Inhibition of MARK2 at 10 uM assessed as residual activity by [33P]ATP radioactive filter binding assay relative to control
Chain of Serine/threonine-protein kinase MARK2 (Homo sapiens) (Q7KZI7 whole entry): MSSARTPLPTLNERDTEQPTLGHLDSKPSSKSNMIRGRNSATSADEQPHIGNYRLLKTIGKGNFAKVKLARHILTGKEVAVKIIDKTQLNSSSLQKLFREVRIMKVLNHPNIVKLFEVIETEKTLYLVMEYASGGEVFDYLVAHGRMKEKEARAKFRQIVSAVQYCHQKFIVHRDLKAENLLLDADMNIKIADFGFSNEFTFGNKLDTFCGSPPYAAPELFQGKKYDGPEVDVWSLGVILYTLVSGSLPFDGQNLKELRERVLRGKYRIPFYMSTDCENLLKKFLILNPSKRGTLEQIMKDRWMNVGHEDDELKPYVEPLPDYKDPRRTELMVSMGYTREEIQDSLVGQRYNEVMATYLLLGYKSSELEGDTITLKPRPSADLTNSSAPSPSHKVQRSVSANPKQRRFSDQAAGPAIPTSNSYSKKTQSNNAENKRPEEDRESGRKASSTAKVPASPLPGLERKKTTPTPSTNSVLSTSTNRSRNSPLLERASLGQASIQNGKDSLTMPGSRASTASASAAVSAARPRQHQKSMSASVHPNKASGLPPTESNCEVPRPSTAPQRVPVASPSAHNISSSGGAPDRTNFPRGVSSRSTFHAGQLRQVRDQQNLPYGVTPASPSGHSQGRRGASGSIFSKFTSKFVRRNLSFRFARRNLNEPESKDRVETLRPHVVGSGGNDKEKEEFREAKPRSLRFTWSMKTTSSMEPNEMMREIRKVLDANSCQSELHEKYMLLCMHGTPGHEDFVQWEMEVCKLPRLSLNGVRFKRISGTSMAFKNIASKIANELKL

[7] = biological target: Serine/threonine-protein kinase PAK 4 (Homo sapiens) (UniProt O96013); assay: Inhibition of PAK4 at 10 uM assessed as residual activity by [33P]ATP radioactive filter binding assay relative to control
[8] = biological target: Serine/threonine-protein kinase 3 (Homo sapiens) (UniProt Q13188); assay: Inhibition of MST2 at 10 uM assessed as residual activity by [33P]ATP radioactive filter binding assay relative to control
[9] = biological target: Serine/threonine-protein kinase Sgk1 (Homo sapiens) (UniProt O00141); assay: Inhibition of SGK1 at 10 uM assessed as residual activity by [33P]ATP radioactive filter binding assay relative to control
Chain of Serine/threonine-protein kinase Sgk1 (Homo sapiens) (O00141 whole entry): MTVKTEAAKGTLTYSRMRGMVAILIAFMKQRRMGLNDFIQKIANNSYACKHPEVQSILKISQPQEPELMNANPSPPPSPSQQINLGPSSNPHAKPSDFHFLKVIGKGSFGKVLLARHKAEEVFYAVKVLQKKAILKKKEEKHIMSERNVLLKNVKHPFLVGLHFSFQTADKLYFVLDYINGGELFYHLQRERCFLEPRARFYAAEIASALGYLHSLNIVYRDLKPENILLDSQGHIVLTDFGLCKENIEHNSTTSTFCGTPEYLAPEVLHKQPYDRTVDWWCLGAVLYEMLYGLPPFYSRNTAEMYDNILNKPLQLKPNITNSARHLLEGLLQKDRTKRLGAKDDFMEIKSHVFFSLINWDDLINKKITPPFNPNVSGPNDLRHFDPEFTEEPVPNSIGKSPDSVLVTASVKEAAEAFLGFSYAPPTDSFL

[10] = Inhibition of AMPK at 10 uM assessed as residual activity by [33P]ATP radioactive filter binding assay relative to control
[11] = biological target: Dual specificity tyrosine-phosphorylation-regulated kinase 1A (Homo sapiens) (UniProt Q13627); assay: Inhibition of DYRK1A at 10 uM assessed as residual activity by [33P]ATP radioactive filter binding assay relative to control
[12] = biological target: Serine/threonine-protein kinase Nek6 (Homo sapiens) (UniProt Q9HC98); assay: Inhibition of NEK6 at 10 uM assessed as residual activity by [33P]ATP radioactive filter binding assay relative to control
[13] = biological target: Mitogen-activated protein kinase 15 (Homo sapiens) (UniProt Q8TD08); assay: Inhibition of ERK8 at 10 uM assessed as residual activity by [33P]ATP radioactive filter binding assay relative to control
Chain of Mitogen-activated protein kinase 15 (Homo sapiens) (Q8TD08 whole entry): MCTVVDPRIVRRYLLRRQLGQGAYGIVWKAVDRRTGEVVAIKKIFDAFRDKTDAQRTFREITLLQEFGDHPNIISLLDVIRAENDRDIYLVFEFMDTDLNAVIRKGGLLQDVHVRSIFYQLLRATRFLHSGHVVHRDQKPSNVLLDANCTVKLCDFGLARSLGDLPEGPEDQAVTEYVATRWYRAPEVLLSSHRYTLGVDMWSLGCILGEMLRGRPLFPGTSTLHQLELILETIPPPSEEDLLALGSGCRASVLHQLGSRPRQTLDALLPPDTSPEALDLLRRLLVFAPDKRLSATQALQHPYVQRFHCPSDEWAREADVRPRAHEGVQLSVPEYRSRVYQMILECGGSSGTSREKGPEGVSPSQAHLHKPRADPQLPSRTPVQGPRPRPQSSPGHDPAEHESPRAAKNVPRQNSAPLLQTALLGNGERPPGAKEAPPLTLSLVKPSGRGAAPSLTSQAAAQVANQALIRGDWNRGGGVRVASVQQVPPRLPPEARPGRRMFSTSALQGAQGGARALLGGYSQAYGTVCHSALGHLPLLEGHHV

[14] = biological target: Protein kinase C zeta type (Homo sapiens) (UniProt Q05513); assay: Inhibition of PKCzeta at 10 uM assessed as residual activity by [33P]ATP radioactive filter binding assay relative to control
[15] = biological target: Aurora kinase A (Homo sapiens) (UniProt O14965); assay: Inhibition of Aurora A at 10 uM assessed as residual activity by [33P]ATP radioactive filter binding assay relative to control
Chain of Aurora kinase A (Homo sapiens) (O14965 whole entry): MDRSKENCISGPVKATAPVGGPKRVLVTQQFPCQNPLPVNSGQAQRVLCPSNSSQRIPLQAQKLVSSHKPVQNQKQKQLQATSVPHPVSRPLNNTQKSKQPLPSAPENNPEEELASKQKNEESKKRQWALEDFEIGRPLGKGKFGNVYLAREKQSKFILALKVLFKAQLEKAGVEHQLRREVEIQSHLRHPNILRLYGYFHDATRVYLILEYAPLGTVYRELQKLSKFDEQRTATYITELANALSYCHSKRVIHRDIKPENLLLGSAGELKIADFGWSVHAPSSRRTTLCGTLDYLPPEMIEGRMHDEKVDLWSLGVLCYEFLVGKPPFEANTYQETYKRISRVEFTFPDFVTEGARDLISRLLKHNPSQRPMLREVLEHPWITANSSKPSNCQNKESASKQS

[16] = biological target: Cyclin-dependent kinase 2/cyclin A (Homo sapiens) (UniProt P24941+P20248+P78396); assay: Inhibition of CDK2/Cyclin A at 10 uM assessed as residual activity by [33P]ATP radioactive filter binding assay relative to control; assay type: protein-complex assay
[17] = biological target: Rho-associated protein kinase 2 (Homo sapiens) (UniProt O75116); assay: Inhibition of ROCK2 at 10 uM assessed as residual activity by [33P]ATP radioactive filter binding assay relative to control
[18] = biological target: Ribosomal protein S6 kinase alpha-1 (Homo sapiens) (UniProt Q15418); assay: Inhibition of RSK1 at 10 uM assessed as residual activity by [33P]ATP radioactive filter binding assay relative to control
[19] = biological target: Mitogen-activated protein kinase 12 (Homo sapiens) (UniProt P53778); assay: Inhibition of p38-gamma at 10 uM assessed as residual activity by [33P]ATP radioactive filter binding assay relative to control
[20] = biological target: MAP/microtubule affinity-regulating kinase 3 (Homo sapiens) (UniProt P27448); assay: Inhibition of MARK3 at 10 uM assessed as residual activity by [33P]ATP radioactive filter binding assay relative to control
[21] = biological target: Misshapen-like kinase 1 (Homo sapiens) (UniProt Q8N4C8); assay: Inhibition of MINK1 at 10 uM assessed as residual activity by [33P]ATP radioactive filter binding assay relative to control
[22] = biological target: Proto-oncogene tyrosine-protein kinase Src (Homo sapiens) (UniProt P12931); assay: Inhibition of Src at 10 uM assessed as residual activity by [33P]ATP radioactive filter binding assay relative to control
[23] = biological target: Serine/threonine-protein kinase Chk2 (Homo sapiens) (UniProt O96017); assay: Inhibition of CHK2 at 10 uM assessed as residual activity by [33P]ATP radioactive filter binding assay relative to control
[24] = biological target: Calcium/calmodulin-dependent protein kinase type 1 (Homo sapiens) (UniProt Q14012); assay: Inhibition of CAMK1 at 10 uM assessed as residual activity by [33P]ATP radioactive filter binding assay relative to control
[25] = biological target: Fibroblast growth factor receptor 1 (Homo sapiens) (UniProt P11362); assay: Inhibition of FGF-R1 at 10 uM assessed as residual activity by [33P]ATP radioactive filter binding assay relative to control
Chain of Fibroblast growth factor receptor 1 (Homo sapiens) (P11362 22-822 limits assumed): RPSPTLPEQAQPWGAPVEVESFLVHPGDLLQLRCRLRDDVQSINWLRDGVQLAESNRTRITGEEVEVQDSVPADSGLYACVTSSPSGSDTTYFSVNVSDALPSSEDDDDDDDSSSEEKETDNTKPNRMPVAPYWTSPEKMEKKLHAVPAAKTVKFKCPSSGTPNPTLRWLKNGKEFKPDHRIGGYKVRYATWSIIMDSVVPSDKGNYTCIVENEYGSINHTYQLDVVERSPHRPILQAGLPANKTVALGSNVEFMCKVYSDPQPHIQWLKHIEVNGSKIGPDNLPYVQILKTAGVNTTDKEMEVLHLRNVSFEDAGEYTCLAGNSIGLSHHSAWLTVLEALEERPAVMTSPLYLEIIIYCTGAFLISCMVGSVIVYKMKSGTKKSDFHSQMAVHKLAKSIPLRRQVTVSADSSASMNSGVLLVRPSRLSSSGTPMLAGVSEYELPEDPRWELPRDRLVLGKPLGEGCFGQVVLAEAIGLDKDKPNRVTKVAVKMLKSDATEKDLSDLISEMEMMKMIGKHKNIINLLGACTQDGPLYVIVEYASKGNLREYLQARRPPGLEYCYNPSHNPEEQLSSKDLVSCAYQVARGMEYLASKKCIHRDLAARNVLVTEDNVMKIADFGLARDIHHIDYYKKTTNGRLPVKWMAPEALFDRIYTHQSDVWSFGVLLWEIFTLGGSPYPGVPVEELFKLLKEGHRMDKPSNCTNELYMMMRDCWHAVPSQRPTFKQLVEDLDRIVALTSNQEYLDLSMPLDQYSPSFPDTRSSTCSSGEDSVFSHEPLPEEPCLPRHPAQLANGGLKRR

[26] = biological target: NUAK family SNF1-like kinase 1 (Homo sapiens) (UniProt O60285); assay: Inhibition of NUAK1 at 10 uM assessed as residual activity by [33P]ATP radioactive filter binding assay relative to control
[27] = biological target: Casein kinase I isoform alpha (Homo sapiens) (UniProt P48729); assay: Inhibition of CK1 at 10 uM assessed as residual activity by [33P]ATP radioactive filter binding assay relative to control
Chain of Casein kinase I isoform alpha (Homo sapiens) (P48729 2-337 limits assumed): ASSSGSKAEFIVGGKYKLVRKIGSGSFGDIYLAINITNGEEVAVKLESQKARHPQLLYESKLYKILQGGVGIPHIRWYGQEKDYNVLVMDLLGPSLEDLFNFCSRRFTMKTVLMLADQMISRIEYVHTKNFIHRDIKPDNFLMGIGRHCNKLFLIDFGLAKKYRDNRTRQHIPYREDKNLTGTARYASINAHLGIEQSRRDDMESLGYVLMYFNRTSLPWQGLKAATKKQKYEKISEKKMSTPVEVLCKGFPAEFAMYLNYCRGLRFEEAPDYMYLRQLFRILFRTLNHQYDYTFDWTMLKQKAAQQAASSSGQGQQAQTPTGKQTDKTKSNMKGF

[28] = biological target: Dual specificity mitogen-activated protein kinase kinase 1 (Homo sapiens) (UniProt Q02750); assay: Inhibition of MKK1 at 10 uM assessed as residual activity by [33P]ATP radioactive filter binding assay relative to control
[29] = biological target: Mitogen-activated protein kinase 8 (Homo sapiens) (UniProt P45983); assay: Inhibition of JNK1 at 10 uM assessed as residual activity by [33P]ATP radioactive filter binding assay relative to control
[30] = biological target: Tyrosine-protein kinase SYK (Homo sapiens) (UniProt P43405); assay: Inhibition of SYK at 10 uM assessed as residual activity by [33P]ATP radioactive filter binding assay relative to control
[31] = biological target: RAC-beta serine/threonine-protein kinase (Homo sapiens) (UniProt P31751); assay: Inhibition of PKBbeta at 10 uM assessed as residual activity by [33P]ATP radioactive filter binding assay relative to control
cells = details: Mus musculus, BaF3, 96 h
Description: Growth inhibition of mouse BA/F3 cells expressing EGFR Del3 and Thr790Met mutant after 96 hrs by cell titer-glo assay

Chain of Serine/threonine-protein kinase PAK 5 (Homo sapiens) (Q9P286 whole entry, looked up): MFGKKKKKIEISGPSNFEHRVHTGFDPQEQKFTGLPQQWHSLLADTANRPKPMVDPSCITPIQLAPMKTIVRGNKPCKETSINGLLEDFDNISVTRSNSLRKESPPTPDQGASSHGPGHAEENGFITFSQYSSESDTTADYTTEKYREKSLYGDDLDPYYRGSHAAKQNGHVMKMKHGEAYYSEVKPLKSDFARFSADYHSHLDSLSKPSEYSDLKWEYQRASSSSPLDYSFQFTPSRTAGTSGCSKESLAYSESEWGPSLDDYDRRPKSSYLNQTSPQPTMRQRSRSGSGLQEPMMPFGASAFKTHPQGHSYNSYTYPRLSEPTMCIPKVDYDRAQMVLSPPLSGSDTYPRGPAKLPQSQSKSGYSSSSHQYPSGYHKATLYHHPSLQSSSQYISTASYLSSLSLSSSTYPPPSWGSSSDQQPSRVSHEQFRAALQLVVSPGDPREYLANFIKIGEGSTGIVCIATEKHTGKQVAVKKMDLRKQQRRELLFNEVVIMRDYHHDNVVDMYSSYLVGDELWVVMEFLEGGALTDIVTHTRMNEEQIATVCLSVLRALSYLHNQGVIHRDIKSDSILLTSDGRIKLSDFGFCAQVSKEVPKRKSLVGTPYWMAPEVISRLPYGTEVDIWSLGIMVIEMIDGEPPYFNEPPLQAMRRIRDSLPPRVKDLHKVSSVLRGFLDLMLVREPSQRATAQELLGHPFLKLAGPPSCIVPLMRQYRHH

Activity [1] [%] | Activity [2] [%] | Activity [3] [%] | Activity [4] [%] | Activity [5] [%] | Activity [6] [%] | Activity [7] [%] | Activity [8] [%] | Activity [9] [%] | Activity [10] [%] | Activity [11] [%] | Activity [12] [%] | Activity [14] [%] | Activity [15] [%] | Activity [16] [%] | Activity [17] [%] | Activity [18] [%] | Activity [19] [%] | Activity [20] [%] | Compound | Activity [13] [%] | also measured
66 | 68 | 71 | 72 | 73 | 77 | 79 | 80 | 82 | 83 | 85 | 85 | 86 | 88 | 88 | 88 | 89 | 94 | 94 | CN(C)CCCC(=O)Nc1ccc2nccc(Nc3cccc(Br)c3)c2c1 | 85 | Activity [21]: 12%; Activity [22]: 13%; Activity [23]: 27%; Activity [24]: 30%; Activity [25]: 31%; Activity [26]: 37%; Activity [27]: 44%; Activity [28]: 45%; Activity [29]: 49%; Activity [30]: 57%; Activity [31]: 61%; GI50 (cells): > 0.5 µM
32 | 64 | 105 | 81 | 63 | 82 | 83 | 90 | 72 | 70 | 65 | 77 | 86 | 66 | 93 | 95 | 72 | 85 | 86 | CN(C)CCCC(=O)Nc1ccc2ncnc(Nc3cccc(Br)c3)c2c1 | 78 | Activity [21]: 35%; Activity [22]: 44%; Activity [23]: 38%; Activity [24]: 57%; Activity [25]: 37%; Activity [26]: 39%; Activity [27]: 66%; Activity [28]: 29%; Activity [29]: 76%; Activity [30]: 67%; Activity [31]: 80%; GI50 (cells): > 5 µM

— ChEMBL document CHEMBL1156950, “Synthesis and biological evaluation of 4-anilinoquinolines as potent inhibitors of epidermal growth factor receptor” (J Med Chem, 2010)
